Assay results from patent US20240358693A1, “METHODS OF TREATING PAIN” (Aisa Pharma, Inc., priority 2023, published 2024).

Test system: participants with SSc-RP
Assay: Scleroderma Health Assessment Questionnaire (SHAQ): disability indices and visual analog scales
Format: in vivo, human
Conditions: Part A
Excerpt: The standard, validated, patient reported outcome measures tool for SSc patients, the Scleroderma Health Assessment Questionnaire (SHAQ), will be used to assess the participant qualify of life. Details are attached in the Appendix. The participant quality of life will be scored, and a disability index calculated for each questionnaire completed by the patient at Screening and each in-clinic visit. The absolute change in participant quality of life from baseline to the end of each dosing period will be calculated similar to frequency data as before.
The SHAQ includes a Raynaud's VAS, which will be reported at screening and each in-clinic visit. The absolute change in Raynaud-VAS, assessed by the participants response to the SHAQ question ‘In the past 7 days, how much have your Raynaud's interfered with your daily activities?’ at baseline and the end of each dosing period will be calculated similar to frequency data as before.
The SHAQ is used to calculate a Disability Index to assess the participant qualify of life. The eight categories assessed by the Disability Index are 1) dressing and grooming, 2) arising, 3) eating, 4) walking, 5) hygiene, 6) reach, 7) grip, and 8) common daily activities. For each of these categories, patients report the amount of difficulty they have in performing two or three specific activities.
There are four possible responses for the Disability Index questions: • Without any difficulty=0 • With some difficulty=1 • With much difficulty=2 • Unable to do=3. • The highest score reported by the patient for any component question of the eight categories determines the score for that category. • If a component question is left blank or the response is too ambiguous to assign a score, then the score for that category is determined by the remaining completed question(s). • If all component questions are blank or if more than one answer is given, then follow up with the respondent is required. • If the respondent's mark is between the response columns, then move it to the closest one. If it's directly between the two, move it to the higher one.
Each of the disability items on the SHAQ has a companion aids/devices variable that is used to record what type(s) of assistance, if any, the participant uses for his/her usual activities. These variables (see below) are coded as follows: • 0=No assistance is needed. • 1=A special device is used by the patient in his/her usual activities. • 2=The patient usually needs help from another person. • 3=The patient usually needs BOTH a special device AND help from another person.
The scoring variables and scoring rules permit the computation of two disability indices, the Standard Disability Index and the Alternative Disability Index.
This question results in a new set of category scores that are computed by adjusting the score for each category, if necessary, based on the patient's use of an aid or device or assistance for that category. If either devices and/or help from another person are checked for a category, the score is set to “2”, unless the score is already “3” (i.e., scores of “0” or “1” are increased to “2”). For example, if the highest score for the dressing category is “1”, and the patient says they use a device for dressing, the computed category score would be “2”. The sum of the computed categories scores is then calculated and divided by the number of categories answered. This gives a score in the 0 to 3 range.
The aid and device variables are not used to calculate the alternative disability index; it is calculated by adding the scores for each of the categories and dividing by the number of categories answered. This gives a score in the 0 to 3 range.
The standard, validated, patient reported outcome measures tool for SSc patients, the SHAQ, was collected at the time points specified in the study schedules (FIG. 2 and FIGS. 4A and 4B) to assess the participant's quality of life. The SHAQ included a Raynaud's VAS that will also be reported separately.

[1] = Modified ITT, dose Cilnidipine 20 mg, or 20 mg + Tadalafil 5 mg
[2] = PP Population, sensitivity analysis, Pooled Cilnidipine 10 mg and Cilnidipine 10 mg + Tadalafil 5 mg
[3] = PP Population, sensitivity analysis, Pooled Cilnidipine 20 mg and Cilnidipine 20 mg + Tadalafil 5 mg
[4] = PP Population, sensitivity analysis, cilnidipine 10 mg and/or tadalafil 5 mg as labelled

COCCOC(=O)C1=C(C)NC(C)=C(C(=O)OC/C=C/c2ccccc2)C1c1cccc([N+](=O)[O-])c1 (stereo not shown) [Cilnidipine, cilnidipine]
SHAQ Finger Ulcers, In Clinic Visit (Day 12), Mean [1]: 0.867 | SHAQ Finger Ulcers, In Clinic Visit (Day 12), Median [1]: 0.700 | SHAQ Standard disability index, Baseline, Mean [1]: 0.250 | SHAQ Standard disability index, Baseline, Median [1]: 0.375 | SHAQ Standard disability index, In Clinic Visit (Day 12), Mean [1]: 0.125 | SHAQ Standard disability index, In Clinic Visit (Day 12), Median [1]: 0.125 | SHAQ Visual Analog Scale-Breathing Problems, Baseline, Mean [1]: 1.133 | SHAQ Visual Analog Scale-Breathing Problems, Baseline, Median [1]: 1.200 | SHAQ Visual Analog Scale-Breathing Problems, In Clinic Visit (Day 12), Mean [1]: 0.300 | SHAQ Visual Analog Scale-Breathing Problems, In Clinic Visit (Day 12), Median [1]: 0.400 | SHAQ Visual Analog Scale-Intestinal Problems, Baseline, Mean [1]: 0.833 | SHAQ Visual Analog Scale-Intestinal Problems, Baseline, Median [1]: 1.000 | SHAQ Visual Analog Scale-Intestinal Problems, In Clinic Visit (Day 12), Mean [1]: 1.133 | SHAQ Visual Analog Scale-Intestinal Problems, In Clinic Visit (Day 12), Median [1]: 1.300 | SHAQ Visual Analog Scale-Pain, Baseline, Mean [1]: 2.167 | SHAQ Visual Analog Scale-Pain, Baseline, Median [1]: 1.500 | SHAQ Visual Analog Scale-Pain, In Clinic Visit (Day 12), Mean [1]: 1.067 | SHAQ Visual Analog Scale-Pain, In Clinic Visit (Day 12), Median [1]: 0.700 | SHAQ Visual Analog Scale-Raynaud's, Baseline, Mean [1]: 2.300 | SHAQ Visual Analog Scale-Raynaud's, Baseline, Median [1]: 2.500 | SHAQ Visual Analog Scale-Raynaud's, In Clinic Visit (Day 12), Mean [1]: 1.033 | SHAQ Visual Analog Scale-Raynaud's, In Clinic Visit (Day 12), Median [1]: 1.100 | SHAQ alternative disability index, Baseline, Mean [1]: 0.208 | SHAQ alternative disability index, Baseline, Median [1]: 0.250 | SHAQ alternative disability index, In Clinic Visit (Day 12), Mean [1]: 0.125 | SHAQ alternative disability index, In Clinic Visit (Day 12), Median [1]: 0.125 | SHAQ Alternative Disability Index: Baseline, Mean [2]: 0.458 | SHAQ Alternative Disability Index: Baseline, Median [2]: 0.250 | SHAQ Alternative Disability Index: Change from Baseline (Day 12), Mean [2]: 0.021 | SHAQ Alternative Disability Index: Change from Baseline (Day 12), Median [2]: 0.000 | SHAQ Alternative Disability Index: In-Clinic Visit (Day 12), Mean [2]: 0.479 | SHAQ Alternative Disability Index: In-Clinic Visit (Day 12), Median [2]: 0.250 | SHAQ Alternative Disability Index: Percent Change from Baseline (Day 12), Mean [2]: 28.11% | SHAQ Alternative Disability Index: Percent Change from Baseline (Day 12), Median [2]: −10.00% | SHAQ Alternative Disability Index: Baseline, Mean [3]: 0.453 | SHAQ Alternative Disability Index: Baseline, Median [3]: 0.250 | SHAQ Alternative Disability Index: Change from Baseline (Day 12), Mean [3]: −0.036 | SHAQ Alternative Disability Index: Change from Baseline (Day 12), Median [3]: −0.063 | SHAQ Alternative Disability Index: In-Clinic Visit (Day 12), Mean [3]: 0.417 | SHAQ Alternative Disability Index: In-Clinic Visit (Day 12), Median [3]: 0.250 | SHAQ Alternative Disability Index: Percent Change from Baseline (Day 12), Mean [3]: 13.40% | SHAQ Alternative Disability Index: Percent Change from Baseline (Day 12), Median [3]: −18.13% | SHAQ Visual Analogue Scale - Breathing Problems: Baseline, Mean [4]: 1.875 | SHAQ Visual Analogue Scale - Breathing Problems: Baseline, Median [4]: 0.000 | SHAQ Visual Analogue Scale - Breathing Problems: Change from Baseline (Day 12), Mean [4]: −0.300 | SHAQ Visual Analogue Scale - Breathing Problems: Change from Baseline (Day 12), Median [4]: 0.000 | SHAQ Visual Analogue Scale - Breathing Problems: In-Clinic Visit (Day 12), Mean [4]: 1.575 | SHAQ Visual Analogue Scale - Breathing Problems: In-Clinic Visit (Day 12), Median [4]: 0.000 | SHAQ Visual Analogue Scale - Breathing Problems: Percent Change from Baseline (Day 12), Mean [4]: −16.00% | SHAQ Visual Analogue Scale - Breathing Problems: Percent Change from Baseline (Day 12), Median [4]: −16.00% | SHAQ Visual Analogue Scale - Finger Ulcers: Baseline, Mean [4]: 0.700 | SHAQ Visual Analogue Scale - Finger Ulcers: Baseline, Median [4]: 0.500 | SHAQ Visual Analogue Scale - Finger Ulcers: Change from Baseline (Day 12), Mean [4]: −0.425 | SHAQ Visual Analogue Scale - Finger Ulcers: Change from Baseline (Day 12), Median [4]: −0.350 | SHAQ Visual Analogue Scale - Finger Ulcers: In-Clinic Visit (Day 12), Mean [4]: 0.275 | SHAQ Visual Analogue Scale - Finger Ulcers: In-Clinic Visit (Day 12), Median [4]: 0.000 | SHAQ Visual Analogue Scale - Finger Ulcers: Percent Change from Baseline (Day 12), Mean [4]: −69.44% | SHAQ Visual Analogue Scale - Finger Ulcers: Percent Change from Baseline (Day 12), Median [4]: −69.44% | SHAQ Visual Analogue Scale - Intestinal Problems: Baseline, Mean [4]: 2.975 | SHAQ Visual Analogue Scale - Intestinal Problems: Baseline, Median [4]: 2.550 | SHAQ Visual Analogue Scale - Intestinal Problems: Change from Baseline (Day 12), Mean [4]: −1.875
